For test [1], the system named is LoVo. In words: Potency index, ratio of benzyl isothiocyanate IC50 to compound IC50 for human LoVo cells. The class given is functional.
Test [2] in a line: Cytotoxicity against human LoVo/DX cells after 72 hrs by sulforhodamine B assay. It is filed as functional, cell-based. A general note: Sulforhodamine B stains cellular protein and so reports cell mass.
Test [3] concerns LoVo. The experiment in a line: Potency index, ratio of sulforaphane IC50 to compound IC50 for human LoVo cells. It is filed as functional.
The subject of test [4] is LoVo. In words: Cytotoxicity against human LoVo cells after 72 hrs by sulforhodamine B assay. It is filed as functional, cell-based.
Test [5] concerns HL-60. The experiment in a line: Cytotoxicity against human HL60 cells after 72 hrs by sulforhodamine B assay. It is filed as functional, cell-based. The settings on record: HL-60, 72 h.
Test [6] is described as follows: Resistance index, ratio of IC50 for human HL60/MX2 cells to IC50 for human HL60 cells. The class given is functional.
Test [7] has as its system HL60/MX2. The experiment in a line: Cytotoxicity against human HL60/MX2 cells after 72 hrs by sulforhodamine B assay. To be noted: HL60/MX2, 72 h. It is filed as functional, cell-based.
Test [8] concerns LoVo. The experiment in a line: Induction of apoptosis in human LoVo cells assessed as increase in caspase3/7 activity at 15 uM using Ac-DEVD-ACC as substrate pretreated for 24 hrs followed by substrate addition measured for 2 hrs by fluorescence assay relative to control. It is filed as functional.
Test [9] has as its system LoVo/DX. The experiment in a line: Induction of apoptosis in human LoVo/DX cells assessed as late apoptotic cells at 15 uM after 24 hrs by APC-Annexin-V/propidium iodide staining based flow cytometric method relative to control. It is filed as functional. A general note: A flow cytometer gives signals particle by particle.
In test [10] the test system is LoVo. The experiment in a line: Induction of apoptosis in human LoVo cells assessed as late apoptotic cells at 15 uM after 24 hrs by APC-Annexin-V/propidium iodide staining based flow cytometric method relative to control. It is filed as functional.
For test [11], the system named is LoVo. The experiment in a line: Induction of apoptosis in human LoVo cells assessed as loss of mitochondrial membrane potential at 15 uM after 24 hrs by JC-1 staining based flow cytometric method relative to control. It is filed as functional.
Test [12] in a line: Induction of apoptosis in human LoVo/DX cells assessed as increase in caspase3/7 activity at 15 uM using Ac-DEVD-ACC as substrate pretreated for 24 hrs followed by substrate addition measured for 2 hrs by fluorescence assay relative to control. It is filed as functional.
In test [13] the test system is LoVo. In words: Induction of apoptosis in human LoVo cells assessed as increase in early apoptotic cells at 15 uM after 24 hrs by APC-Annexin-V/propidium iodide staining based flow cytometric method relative to control. It is filed as functional.
Test [14] can be described thus: Induction of apoptosis in human LoVo/DX cells assessed as loss of mitochondrial membrane potential at 15 uM after 24 hrs by JC-1 staining based flow cytometric method relative to control. It is filed as functional.
In test [15] the test system is LoVo. The experiment in a line: Induction of apoptosis in human LoVo cells assessed as necrotic cells at 15 uM after 24 hrs by APC-Annexin-V/propidium iodide staining based flow cytometric method (reference value: 10%). It is filed as functional.

Activity calls are given as the source filed them. The rule behind the calls is not given here.

By IC50 is commonly meant the concentration that gives 50% inhibition. A lower IC50 goes with greater potency. Consider `CC(C)OP(=O)(CCCN=C=S)OC(C)C`, for which the “Ratio IC50” value in [1] was 5; in test [3], 10. Also, the half-maximal inhibitory concentration (IC50) in test [2] was 3.3 µM; in test [4], 2.6 µM.
Turning to `COP(=O)(CCCN=C=S)OC`, the IC50 in test [2] was found to be 9.6 µM; in test [4] it was 9.3 µM.
For the compound `O=C1c2c(O)ccc(O)c2C(=O)c2c(NCCNCCO)ccc(NCCNCCO)c21` [MITOXANTRONE], the results for the half-maximal inhibitory concentration (IC50) in test [5] and in [7] were 0.004 µM and 0.148 µM, respectively. Moreover, in test [6], the “Ratio IC50” value is given as 37.
For `O=P(CCCCN=C=S)(Oc1ccccc1)Oc1ccccc1`, the “Ratio IC50” value was 5 in test [1] and 10 in [3]. The IC50 in test [2] turned out to be 3.1 µM; in test [4] it was 2.3 µM.
The corresponding values for `O=P(CCCCCN=C=S)(Oc1ccccc1)Oc1ccccc1` are 5, 10, 4.6 µM and 2.2 µM.
On to `O=P(CCCN=C=S)(Oc1ccccc1)Oc1ccccc1`, for which the values for the IC50 in test [2] and in test [4] were 10.2 µM and 4.2 µM, respectively.
For `CC(C)(C)COP(=O)(CCCCCCN=C=S)OCC(C)(C)C` the same measures were 11.2 µM and 7.4 µM.
With `CC[C@H](C)OP(=O)(CCCCN=C=S)O[C@@H](C)CC`, the 50% inhibitory concentration (IC50) came out at 4.5 µM in test [2] and 4.2 µM in test [4].
The corresponding values for `C=CCOP(=O)(CCCCN=C=S)OCC=C` are 3.7 µM and 5.2 µM.
For `CC(C)(C)COP(=O)(CCCCCN=C=S)OCC(C)(C)C` the same measures were 10.8 µM and 8.9 µM.
Regarding `CC(C)COP(=O)(CCCCCN=C=S)OCC(C)C`, the “Ratio IC50” value in [1] stood at 5; in test [3], 10. The IC50 was determined as 5.1 µM in test [2] and 2.4 µM in test [4].
As to `O=P(CCCCN=C=S)(OCC(F)(F)F)OCC(F)(F)F`, the figures for the IC50 in test [2] and in [4] were 5.7 µM and 4.9 µM, respectively.
In the case of `CC(C)COP(=O)(CCCN=C=S)OCC(C)C`, the “Ratio IC50” value turned out to be 5 in test [1] and 10 in [3]. In addition, the figures for the IC50 in [2] and in test [4] were 5.6 µM and 2.4 µM, respectively.
Consider `O=P(CCCCCN=C=S)(OCc1ccccc1)OCc1ccccc1`, for which the results for the concentration for half-maximal inhibition (IC50) in [2] and in [4] were 8.5 µM and 3.5 µM, respectively.
For `O=P(CCCCCCN=C=S)(OCC(F)(F)F)OCC(F)(F)F` the same measures were 8.8 µM and 4.2 µM.
The corresponding values for `CC(C)(C)COP(=O)(CCCN=C=S)OCC(C)(C)C` are 14 µM and 10.2 µM.
Take `CC(C)OP(=O)(CCCCN=C=S)OC(C)C`: the “Ratio IC50” value is listed as 5 in test [1] and 10 in [3]. The concentration for half-maximal inhibition (IC50) in test [2] was 5 µM; in test [4], 2.5 µM.
`C=CCN=C=S` [ALLYL ISOTHIOCYANATE]: the concentration for half-maximal inhibition (IC50) in test [2] was determined as 29.3 µM; in [4], 21.2 µM.
Consider `CCOP(=O)(CCCCCN=C=S)OCC`, for which the “Ratio IC50” value in test [1] was 5; in [3] it was 10. Also, the 50% inhibitory concentration (IC50) in test [2] is 3.1 µM; in test [4], 2.8 µM.
`COP(=O)(CCCCCCN=C=S)OC`: the IC50 in [2] is 9.9 µM; in test [4] it was 5.4 µM.
The corresponding values for `O=P(CCN=C=S)(OCC(F)(F)F)OCC(F)(F)F` are 8.2 µM and 5.5 µM.
The corresponding values for `COP(=O)(CCN=C=S)OC` are 12.4 µM and 12.3 µM.
In the case of `CC(C)OP(=O)(CCCCCN=C=S)OC(C)C`, the “Ratio IC50” value in test [1] turned out to be 5; in [3] it was 10. Also, the half-inhibitory concentration (IC50) in [2] was found to be 7.9 µM; in test [4], 2.6 µM.
With `O=P(CCN=C=S)(Oc1ccccc1)Oc1ccccc1`, the 50% inhibitory concentration (IC50) was 11.4 µM in test [2] and 10.5 µM in test [4].
As for `O=P(CCCCN=C=S)(OCc1ccccc1)OCc1ccccc1`, the IC50 in test [2] is 8.4 µM; in test [4], 3.8 µM.
For `O=P(CCCN=C=S)(OCC(F)(F)F)OCC(F)(F)F`, the half-inhibitory concentration (IC50) stood at 4.7 µM in test [2] and 3.9 µM in test [4].
For `COP(=O)(CCCCN=C=S)OC` the same measures were 6.5 µM and 5.4 µM.
As to `CCOP(=O)(CCCCN=C=S)OCC`, the IC50 in test [2] worked out at 10.2 µM; in [4], 4.6 µM.
With `CC(C)(C)COP(=O)(CCCCN=C=S)OCC(C)(C)C`, the IC50 was 10.6 µM in test [2] and 10.2 µM in test [4].
For `O=P(CCCCCN=C=S)(OCC(F)(F)F)OCC(F)(F)F` the same measures were 10.5 µM and 5.4 µM.
For `CCOP(=O)(CCN=C=S)OCC` the same measures were 6.1 µM and 4.5 µM.
In the case of `C#CCOP(=O)(CCCCN=C=S)OCC#C`, the results for the half-inhibitory concentration (IC50) in [2] and in test [4] were 11.3 µM and 3.2 µM, respectively.
For `COP(=O)(CCCCCN=C=S)OC` the same measures were 9.4 µM and 5 µM.
For `CC(C)COP(=O)(CCCCN=C=S)OCC(C)C` the same measures were 10.4 µM and 3.3 µM.
The corresponding values for `CCC(C)OP(=O)(CCCCN=C=S)OC(C)CC` (stereo not drawn) are 3.6 µM and 4.3 µM.
In the case of `C[S+]([O-])CCCCN=C=S` (stereo not drawn) [SULFORAPHANE], the “fold change (FC)” value is listed as 1.41 in [8] and 2.52 in test [12]. Further, the outcome in test [9], in [10] and in [15] was Active. Further, the IC50 in [2] was 18.1 µM; in [4] it was 22.9 µM. For the same compound, the Activity in test [11] and in test [14] was 35% each time. For the same compound, the outcome in test [13] was inactive.
Take `CCOP(=O)(CCCN=C=S)OCC`: the “Ratio IC50” value worked out at 5 in test [1] and 10 in test [3]. Also, the figures for the IC50 in test [2] and in test [4] were 3 µM and 2.9 µM, respectively.
For `O=P(CCCCN=C=S)(OCC1CCCO1)OCC1CCCO1` (stereo not drawn), the concentration for half-maximal inhibition (IC50) in [2] came to 7.6 µM; in test [4], 5 µM.
The corresponding values for `CCOP(=O)(CCCCCCCCCCN=C=S)OCC` are 13.1 µM and 10 µM.
The corresponding values for `CC(C)[C@@H]1CC[C@@H](C)C[C@H]1OP(=O)(CCCCN=C=S)O[C@@H]1C[C@H](C)CC[C@H]1C(C)C` are 5.8 µM and 5.1 µM.
The corresponding values for `O=P(CCCCCCN=C=S)(OCc1ccccc1)OCc1ccccc1` are 9.2 µM and 4.6 µM.
On to `CC(C)OP(=O)(CCN=C=S)OC(C)C`, for which the figures for the “Ratio IC50” value in [1] and in test [3] were 5 and 10, respectively. Besides, the IC50 in test [2] came to 3.6 µM; in test [4], 2.7 µM.

Source of the values: ChEMBL document CHEMBL4028815, “Novel phosphonate analogs of sulforaphane: Synthesis, in vitro and in vivo anticancer activity” (Eur J Med Chem, 2017).
